Assay: refractive index (other wavelength) (dimensionless); xn = mol fraction of the nth substance listed
Details: 293.15 K, 94.64 kPa, Liquid, Standard Abbe refractometry

CC(=O)O [acetic acid] + Cc1ccccc1
refractive index
Details	Wavelength=404.7 nm	Wavelength=435.8 nm	Wavelength=486.1 nm	Wavelength=546.1 nm	Wavelength=587.6 nm	Wavelength=632.8 nm
x1 = 0.146	1.51185	1.50406	1.49519	1.48808	1.4846	1.48156
x1 = 0.277	1.49627	1.48902	1.48081	1.47416	1.47093	1.4681
x1 = 0.397	1.48254	1.47576	1.4681	1.46191	1.45889	1.45622
x1 = 0.506	1.46794	1.46165	1.45457	1.44883	1.44603	1.44355
x1 = 0.605	1.45403	1.44826	1.44171	1.43642	1.43382	1.43151
x1 = 0.697	1.43966	1.43437	1.4285	1.42367	1.42129	1.41917
x1 = 0.782	1.42556	1.42081	1.41549	1.41115	1.40899	1.40703
x1 = 0.859	1.41172	1.40749	1.40275	1.39886	1.39688	1.3951
x1 = 0.897	1.40081	1.397	1.39273	1.38919	1.38738	1.38572
x1 = 0.932	1.39511	1.39153	1.3875	1.38415	1.38242	1.38084
x1 = 0.967	1.38917	1.38582	1.38206	1.37892	1.37727	1.37577
x1 = 1	1.38345	1.38034	1.37681	1.37386	1.3723	1.37087

Reference: the NIST ThermoML archive (doi:10.1021/acs.jced.5b00197)
